Measured values taken from PubChem BioAssay AID248 (DTP/NCI, 2004).
“And” between values parts separate entries of the source, which are not always exact repeats. Identical values can stand only once. Inconclusive results and toxic doses are left out. Rule as the data show it: active = T/C of 150% or more; inactive = T/C below 125%.

Tested on: L1210 leukemia ip in BDF1 mice, survival T/C
Test: NCI In Vivo Anticancer Drug Screen. Data for tumor model L1210 Leukemia (intraperitoneal) in B6D2F1 (BDF1) mice
Conditions: endpoint: mean survival time, higher = longer survival
Method in brief: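 Transplanted-tumor mice were given test agent; controls received vehicle only. Survival readings from the two groups were divided (treated over control).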

[1] = dose: 25.0 mg/kg/injection, schedule: Q04DX003 (ip), vehicle: Klucel (hydroxypropylcellulose) (HPC)
[2] = dose: 50.0 mg/kg/injection, schedule: Q04DX003 (ip), vehicle: Klucel (hydroxypropylcellulose) (HPC)
[3] = dose: 100.0 mg/kg/injection, schedule: Q01DX001 (ip), vehicle: Klucel (hydroxypropylcellulose) (HPC)
[4] = dose: 100.0 mg/kg/injection, schedule: Q04DX003 (ip), vehicle: Klucel (hydroxypropylcellulose) (HPC)
[5] = dose: 200.0 mg/kg/injection, schedule: Q01DX001 (ip), vehicle: Klucel (hydroxypropylcellulose) (HPC)
[6] = dose: 100.0 mg/kg/injection, schedule: Q01DX009 (ip), vehicle: Klucel (hydroxypropylcellulose) (HPC)
[7] = dose: 200.0 mg/kg/injection, schedule: Q01DX009 (ip), vehicle: Klucel (hydroxypropylcellulose) (HPC)
[8] = dose: 200.0 mg/kg/injection, schedule: Q04DX003 (ip), vehicle: Klucel (hydroxypropylcellulose) (HPC)
[9] = dose: 400.0 mg/kg/injection, schedule: Q01DX009 (ip), vehicle: Klucel (hydroxypropylcellulose) (HPC)
[10] = dose: 400.0 mg/kg/injection, schedule: Q04DX003 (ip), vehicle: Klucel (hydroxypropylcellulose) (HPC)
[11] = dose: 100.0 mg/kg/injection, schedule: Q01DX009 (ip), vehicle: saline with Tween-80
[12] = dose: 100.0 mg/kg/injection, schedule: Q04DX003 (ip), vehicle: saline with Tween-80
[13] = dose: 200.0 mg/kg/injection, schedule: Q01DX009 (ip), vehicle: saline with Tween-80
[14] = dose: 200.0 mg/kg/injection, schedule: Q04DX003 (ip), vehicle: saline with Tween-80
[15] = dose: 12.5 mg/kg/injection, schedule: Q01DX009 (ip), vehicle: saline with Tween-80
[16] = dose: 25.0 mg/kg/injection, schedule: Q01DX009 (ip), vehicle: saline with Tween-80
[17] = dose: 50.0 mg/kg/injection, schedule: Q01DX009 (ip), vehicle: saline with Tween-80
[18] = dose: 100.0 mg/kg/injection, schedule: Q01DX001 (ip), vehicle: saline
[19] = dose: 200.0 mg/kg/injection, schedule: Q01DX001 (ip), vehicle: saline
[20] = dose: 400.0 mg/kg/injection, schedule: Q04DX002 (ip), vehicle: saline with Tween-80

Measured: T/C

CCOC(=O)CCc1c(C(=O)OCC)[nH]c(C)c1C(=O)C(=O)OC
inactive: [1] 101 % of control | [2] 98 % of control | [3] 95 % of control | [4] 103 % of control | [5] 93 % of control | dose: 400.0 mg/kg/injection, schedule: Q01DX001 (ip), vehicle: Klucel (hydroxypropylcellulose) (HPC) 90 % of control

NC(CO)C(O)c1ccc([N+](=O)[O-])cc1 (configuration not stated)
inactive: [6] 101 % of control | [4] 91 % of control | [7] 101 % of control | [8] 100 % of control | [9] 101 % of control | [10] 98 % of control

Clc1cccc(NCCc2ccccc2)c1
inactive: [4] 94 % of control | [8] 94 % of control | [10] 102 % of control

N=C(N)SCCSC(=N)N
inactive: dose: 100.0 mg/kg/injection, schedule: Q04DX003 (ip), vehicle: saline sonified 93 % of control

Nc1ccccc1-n1cccc1
inactive: dose: 100.0 mg/kg/injection, schedule: Q04DX003 (ip), vehicle: other 100 % of control | dose: 200.0 mg/kg/injection, schedule: Q04DX003 (ip), vehicle: other 113 % of control | dose: 400.0 mg/kg/injection, schedule: Q04DX003 (ip), vehicle: other 100 % of control

O=C1OC(COCC#Cc2ccccc2)CN1c1ccccc1 (configuration not stated)
inactive: [11] 105 % of control | [12] 95 % of control | [13] 106 % of control | [14] 101 % of control | dose: 400.0 mg/kg/injection, schedule: Q01DX009 (ip), vehicle: saline with Tween-80 103 % of control | dose: 400.0 mg/kg/injection, schedule: Q04DX003 (ip), vehicle: saline with Tween-80 100 % of control

COC12C3C=CC4C(C=C3)C4C1C2(Br)Br (configuration not stated)
inactive: dose: 50.0 mg/kg/injection, schedule: Q01DX001 (ip), vehicle: Klucel (hydroxypropylcellulose) (HPC) 105 % of control | [3] 96 % of control | [5] 105 % of control

C=C(C)C1(CCCC)C(=O)NC(=O)NC1=O
inactive: dose: 75.0 mg/kg/injection, schedule: Q01DX001 (ip), vehicle: saline 104 % of control and 102 % of control | dose: 150.0 mg/kg/injection, schedule: Q01DX001 (ip), vehicle: saline 107 % of control and 100 % of control | dose: 300.0 mg/kg/injection, schedule: Q01DX001 (ip), vehicle: saline 102 % of control

CCCCCOc1ccc(C(=O)/C(Br)=C/C(=O)O)cc1
inactive: [15] 98 % of control | [16] 96 % of control | [17] 101 % of control

COC(=O)C1c2ccccc2-c2ccccc21
inactive: [17] 97 % of control | [11] 107 % of control | [13] 96 % of control

NCCCCCCNC(=O)CCC(=O)NCCCCCCN
inactive: dose: 8.0 mg/kg/injection, schedule: Q01DX Z (ip), vehicle: water 86 % of control | dose: 16.0 mg/kg/injection, schedule: Q01DX Z (ip), vehicle: water 91 % of control | dose: 32.0 mg/kg/injection, schedule: Q01DX Z (ip), vehicle: water 88 % of control | dose: 64.0 mg/kg/injection, schedule: Q01DX Z (ip), vehicle: saline 109 % of control | dose: 64.0 mg/kg/injection, schedule: Q01DX Z (ip), vehicle: water 91 % of control | dose: 128.0 mg/kg/injection, schedule: Q01DX Z (ip), vehicle: saline 88 % of control

O=C1c2ccccc2-c2ccc([N+](=O)[O-])c(Br)c21
inactive: dose: 100.0 mg/kg/injection, schedule: Q01DX001 (ip), vehicle: carboxymethylcellulose (CMC) 106 % of control | dose: 200.0 mg/kg/injection, schedule: Q01DX001 (ip), vehicle: carboxymethylcellulose (CMC) 106 % of control | dose: 400.0 mg/kg/injection, schedule: Q01DX001 (ip), vehicle: carboxymethylcellulose (CMC) 102 % of control

CCCCCP(=O)(CCCC)CCCCC
inactive: dose: 50.0 mg/kg/injection, schedule: Q01DX009 (ip), vehicle: Klucel (hydroxypropylcellulose) (HPC) 89 % of control | [6] 89 % of control

O=C(Nc1ccc(Cl)cc1)Oc1ccc(Nc2ccccc2)cc1
inactive: dose: 100.0 mg/kg/injection, schedule: Q04DX002 (ip), vehicle: Klucel (hydroxypropylcellulose) (HPC) 114 % of control | dose: 200.0 mg/kg/injection, schedule: Q04DX002 (ip), vehicle: Klucel (hydroxypropylcellulose) (HPC) 111 % of control | dose: 400.0 mg/kg/injection, schedule: Q04DX002 (ip), vehicle: Klucel (hydroxypropylcellulose) (HPC) 111 % of control

CCCCCCCNC(=O)CI
inactive: [18] 103 % of control | [19] 111 % of control

Sc1ccc2ccccc2c1CN(Cc1ccccc1)Cc1c(S)ccc2ccccc12
inactive: [18] 91 % of control | [19] 90 % of control | dose: 400.0 mg/kg/injection, schedule: Q01DX001 (ip), vehicle: saline 91 % of control

Clc1nc2ccccc2nc1CI
inactive: dose: 6.25 mg/kg/injection, schedule: Q01DX009 (ip), vehicle: Klucel (hydroxypropylcellulose) (HPC) 94 % of control | dose: 12.5 mg/kg/injection, schedule: Q01DX009 (ip), vehicle: Klucel (hydroxypropylcellulose) (HPC) 102 % of control | [16] 89 % of control | [1] 102 % of control | [2] 90 % of control

O=[N+]([O-])c1ccc(N/N=C/C(c2ccccc2)c2ccsc2)c([N+](=O)[O-])c1 (configuration not stated)
inactive: dose: 50.0 mg/kg/injection, schedule: Q04DX003 (ip), vehicle: saline 104 % of control | dose: 100.0 mg/kg/injection, schedule: Q01DX001 (ip), vehicle: saline with Tween-80 97 % of control | dose: 100.0 mg/kg/injection, schedule: Q04DX003 (ip), vehicle: saline 106 % of control | dose: 200.0 mg/kg/injection, schedule: Q01DX001 (ip), vehicle: saline with Tween-80 96 % of control | dose: 200.0 mg/kg/injection, schedule: Q04DX003 (ip), vehicle: saline 104 % of control

CCOC(=O)C1C(=O)C2CCc3c(ccc4ccccc34)N2C1=O (configuration not stated)
inactive: [4] 98 % of control | [8] 104 % of control

OC(CF)CF
inactive: dose: 25.0 mg/kg/injection, schedule: Q01DX009 (ip), vehicle: saline 115 % of control | dose: 100.0 mg/kg/injection, schedule: Q01DX009 (ip), vehicle: saline 103 % of control

O=C(Nc1ccccc1)OCC(CN1CCCCC1)OC(=O)Nc1ccccc1 (configuration not stated)
inactive: [15] 97 % of control | [16] 99 % of control | [17] 99 % of control | [11] 86 % of control | [12] 98 % of control | [13] 91 % of control | [14] 90 % of control

CN(c1ccccc1Cl)c1ccccc1Cl
inactive: dose: 64.0 mg/kg/injection, schedule: Q04DX002 (ip), vehicle: saline with Tween-80 104 % of control | dose: 160.0 mg/kg/injection, schedule: Q04DX002 (ip), vehicle: saline with Tween-80 89 % of control | [20] 86 % of control

COC1=CC(C)(C)c2ccccc2C1=O
inactive: dose: 50.0 mg/kg/injection, schedule: Q01DX009 (ip), vehicle: saline sonified 97 % of control | dose: 100.0 mg/kg/injection, schedule: Q01DX009 (ip), vehicle: saline sonified 99 % of control | [4] 97 % of control | dose: 200.0 mg/kg/injection, schedule: Q01DX009 (ip), vehicle: saline sonified 97 % of control | [8] 115 % of control | [10] 97 % of control

CCOc1ccc(NC(=O)Nc2ccccc2C(F)(F)F)cc1
inactive: [6] 89 % of control | [7] 96 % of control | [9] 100 % of control

[Br][Pb]([Br])([c]1ccccc1)[c]1ccccc1
inactive: [6] 117 % of control | [4] 91 % of control | [7] 98 % of control | [8] 100 % of control | [10] 94 % of control

O=COCC1CC2C=CC1C2 (configuration not stated)
inactive: dose: 222.0 mg/kg/injection, schedule: Q01DX Z (ip), vehicle: saline 98 % of control | dose: 333.0 mg/kg/injection, schedule: Q01DX Z (ip), vehicle: saline 102 % of control | dose: 500.0 mg/kg/injection, schedule: Q01DX Z (ip), vehicle: saline 97 % of control

CC1(C)C2CC=C(CCO)C1C2 (configuration not stated)
inactive: [18] 98 % of control | dose: 100.0 mg/kg/injection, schedule: Q04DX002 (ip), vehicle: saline with Tween-80 98 % of control | [19] 93 % of control | dose: 200.0 mg/kg/injection, schedule: Q04DX002 (ip), vehicle: saline with Tween-80 110 % of control | [20] 93 % of control
